Here are results for six cell lines from the supplement of paper PMC10307832.

Common to all, as to assay: relative viability (nuclei count vs DMSO), 5 days (fraction); higher = more cells survive
Compound in experiment [1]: Cn1cncc1[C@@](N)(c1ccc(Cl)cc1)c1ccc2c(c1)c(-c1cccc(Cl)c1)cc(=O)n2C [Tipifarnib] + CCNC(=O)c1noc(-c2cc(C(C)C)c(O)cc2O)c1-c1ccc(CN2CCOCC2)cc1 [Luminespib] (partner 0.01 µM)
In short, it runs like this: (§1)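 Five library-drug doses in √10 steps were combined with a fixed anchor-drug dose, or a single drug was given alone, by pin tool to lung cancer cell lines in 1536-well plates the day after seeding. Nuclei were stained and counted after 5 days. Relative viability is the nuclei count in treated wells over that in vehicle wells, taken as the median of duplicate plates.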

Compound in experiment [2]: Cn1cncc1[C@@](N)(c1ccc(Cl)cc1)c1ccc2c(c1)c(-c1cccc(Cl)c1)cc(=O)n2C [Tipifarnib] + COc1cc2c(Oc3ccc(NC(=O)C4(C(=O)Nc5ccc(F)cc5)CC4)cc3F)ccnc2cc1OCCCN1CCOCC1 [Foretinib] (partner 0.25 µM)
In short, it runs like this: as §1

Compound in experiment [3]: Cn1cncc1[C@@](N)(c1ccc(Cl)cc1)c1ccc2c(c1)c(-c1cccc(Cl)c1)cc(=O)n2C [Tipifarnib] + Cc1nc(Nc2ncc(C(=O)Nc3c(C)cccc3Cl)s2)cc(N2CCN(CCO)CC2)n1 [Dasatinib] (partner 0.075 µM)
In short, it runs like this: as §1

Compound in experiment [4]: Cn1cncc1[C@@](N)(c1ccc(Cl)cc1)c1ccc2c(c1)c(-c1cccc(Cl)c1)cc(=O)n2C [Tipifarnib] + Nc1ncn([C@H]2C[C@H](O)[C@@H](CO)O2)c(=O)n1 [Decitabine] (partner 2 µM)
In short, it runs like this: as §1

NCI-H2126: the relative viability worked out at 0.982 in experiment [1] (first compound 0.01 µM); 0.947 in experiment [1] (first compound 0.03162 µM); 0.7 in experiment [1] (first compound 0.1 µM); 0.876 in experiment [1] (first compound 0.3162 µM); 0.723 in experiment [1] (first compound 1 µM); 1.06 in experiment [2] (first compound 0.01 µM). In addition, the relative viability is 1.55 in experiment [2] (first compound 0.03162 µM); 1.1 in experiment [2] (first compound 0.1 µM); 1.12 in experiment [2] (first compound 0.3162 µM); 1.12 in experiment [2] (first compound 1 µM); 0.652 in experiment [3] (first compound 0.01 µM); 0.673 in experiment [3] (first compound 0.03162 µM). Further, the relative viability in experiment [3] (first compound 0.1 µM) was 0.648; in experiment [3] (first compound 0.3162 µM), 0.578; in experiment [3] (first compound 1 µM), 0.391; in experiment [4] (first compound 0.01 µM), 0.576; in experiment [4] (first compound 0.03162 µM), 0.582; in experiment [4] (first compound 0.1 µM) it was 0.578. Also, the relative viability in experiment [4] (first compound 0.3162 µM) was found to be 0.519; in experiment [4] (first compound 1 µM) it was 0.53.

Consider NCI-H2170, for which the relative viability in experiment [1] (first compound 0.01 µM) worked out at 0.406; in experiment [1] (first compound 0.03162 µM), 0.555; in experiment [1] (first compound 0.1 µM), 0.619; in experiment [1] (first compound 0.3162 µM), 0.282; in experiment [1] (first compound 1 µM), 0.691; in experiment [2] (first compound 0.01 µM), 1.03. The relative viability in experiment [2] (first compound 0.03162 µM) came out at 1.06; in experiment [2] (first compound 0.1 µM) it was 1.01; in experiment [2] (first compound 0.3162 µM), 0.99; in experiment [2] (first compound 1 µM), 0.896; in experiment [3] (first compound 0.01 µM) it was 0.688; in experiment [3] (first compound 0.03162 µM), 0.805. In addition, the relative viability in experiment [3] (first compound 0.1 µM) amounted to 0.601; in experiment [3] (first compound 0.3162 µM) it was 0.636; in experiment [3] (first compound 1 µM), 0.462; in experiment [4] (first compound 0.01 µM), 0.533; in experiment [4] (first compound 0.03162 µM), 0.441; in experiment [4] (first compound 0.1 µM), 0.465. Also, the results for the relative viability in experiment [4] (first compound 0.3162 µM) and in experiment [4] (first compound 1 µM) were 0.43 and 0.412, respectively.

For NCI-H2342, the relative viability turned out to be 0.689 in experiment [1] (first compound 0.01 µM); 0.669 in experiment [1] (first compound 0.03162 µM); 0.635 in experiment [1] (first compound 0.1 µM); 0.569 in experiment [1] (first compound 0.3162 µM); 0.51 in experiment [1] (first compound 1 µM); 1.06 in experiment [2] (first compound 0.01 µM). Moreover, the relative viability came out at 0.984 in experiment [2] (first compound 0.03162 µM); 0.884 in experiment [2] (first compound 0.1 µM); 0.824 in experiment [2] (first compound 0.3162 µM); 0.771 in experiment [2] (first compound 1 µM); 0.332 in experiment [3] (first compound 0.01 µM); 0.337 in experiment [3] (first compound 0.03162 µM). Further, the relative viability in experiment [3] (first compound 0.1 µM) came out at 0.272; in experiment [3] (first compound 0.3162 µM) it was 0.331; in experiment [3] (first compound 1 µM), 0.267; in experiment [4] (first compound 0.01 µM), 0.778; in experiment [4] (first compound 0.03162 µM), 0.782; in experiment [4] (first compound 0.1 µM), 0.683. Moreover, the relative viability in experiment [4] (first compound 0.3162 µM) was found to be 0.555; in experiment [4] (first compound 1 µM), 0.557.

Regarding NCI-H2347, the relative viability in experiment [1] (first compound 0.01 µM) is 0.671; in experiment [1] (first compound 0.03162 µM), 0.298; in experiment [1] (first compound 0.1 µM), 0.401; in experiment [1] (first compound 0.3162 µM) it was 0.386; in experiment [1] (first compound 1 µM), 0.28; in experiment [2] (first compound 0.01 µM), 1.34. The relative viability in experiment [2] (first compound 0.03162 µM) is 0.76; in experiment [2] (first compound 0.1 µM), 0.723; in experiment [2] (first compound 0.3162 µM), 0.756; in experiment [2] (first compound 1 µM), 0.528; in experiment [3] (first compound 0.01 µM) it was 0.278; in experiment [3] (first compound 0.03162 µM), 0.293. Besides, the relative viability in experiment [3] (first compound 0.1 µM) turned out to be 0.256; in experiment [3] (first compound 0.3162 µM) it was 0.303; in experiment [3] (first compound 1 µM) it was 0.277; in experiment [4] (first compound 0.01 µM), 0.593; in experiment [4] (first compound 0.03162 µM), 0.553; in experiment [4] (first compound 0.1 µM) it was 0.581. Also, the relative viability in experiment [4] (first compound 0.3162 µM) worked out at 0.527; in experiment [4] (first compound 1 µM), 0.521.

For NCI-H2405, the relative viability is 0.71 in experiment [1] (first compound 0.01 µM); 0.584 in experiment [1] (first compound 0.03162 µM); 0.525 in experiment [1] (first compound 0.1 µM); 0.606 in experiment [1] (first compound 0.3162 µM); 0.527 in experiment [1] (first compound 1 µM); 1.06 in experiment [2] (first compound 0.01 µM). The relative viability in experiment [2] (first compound 0.03162 µM) was 1.03; in experiment [2] (first compound 0.1 µM), 1.03; in experiment [2] (first compound 0.3162 µM) it was 0.993; in experiment [2] (first compound 1 µM) it was 0.923; in experiment [3] (first compound 0.01 µM), 0.188; in experiment [3] (first compound 0.03162 µM), 0.208. Moreover, the relative viability is 0.219 in experiment [3] (first compound 0.1 µM); 0.228 in experiment [3] (first compound 0.3162 µM); 0.217 in experiment [3] (first compound 1 µM); 0.783 in experiment [4] (first compound 0.01 µM); 0.688 in experiment [4] (first compound 0.03162 µM); 0.721 in experiment [4] (first compound 0.1 µM). Also, the relative viability in experiment [4] (first compound 0.3162 µM) is 0.683; in experiment [4] (first compound 1 µM), 0.73.

With NCI-H3122, the relative viability stood at 0.0874 in experiment [1] (first compound 0.01 µM); 0.0613 in experiment [1] (first compound 0.03162 µM); 0.0958 in experiment [1] (first compound 0.1 µM); 0.0893 in experiment [1] (first compound 0.3162 µM); 0.0812 in experiment [1] (first compound 1 µM); 0.957 in experiment [2] (first compound 0.01 µM). In addition, the relative viability in experiment [2] (first compound 0.03162 µM) was found to be 0.796; in experiment [2] (first compound 0.1 µM), 0.744; in experiment [2] (first compound 0.3162 µM), 0.693; in experiment [2] (first compound 1 µM), 0.544; in experiment [3] (first compound 0.01 µM), 0.63; in experiment [3] (first compound 0.03162 µM), 0.456. The relative viability was found to be 0.644 in experiment [3] (first compound 0.1 µM); 0.327 in experiment [3] (first compound 0.3162 µM); 0.138 in experiment [3] (first compound 1 µM); 0.414 in experiment [4] (first compound 0.01 µM); 0.407 in experiment [4] (first compound 0.03162 µM); 0.415 in experiment [4] (first compound 0.1 µM). The relative viability stood at 0.397 in experiment [4] (first compound 0.3162 µM) and 0.308 in experiment [4] (first compound 1 µM).
